Measurements published in publication PMC6754133 (PLoS ONE, 2019).
Where two headings read alike, the source gives them in different places.

Tests used:
SMO [1] = biological target: T1, SMO (Mus musculus, UniProt P56726); conditions: literature value, cited from earlier work; for IC50: read-out: Gli-RE-luciferase assay IC50
T1 construct: host or cells: NIH 3T3 Gli-RE

Hh/SMO pathway = experiment: Gli-Luciferase functional assay, NIH 3T3 Gli-RE cells stimulated with ShhN; format: cell-based; conditions: for Span of concentration response curve: data as percent of the maximum luminescence in the absence of antagonists, Fig 4; for Inhibition of ShhN-induced Hh signaling (in words): NIH 3T3 Gli-RE cells, ShhN stimulated
Protocol: After 24 hours, when the cells reached confluency, the culture medium was replaced with 80 μL per well of assay medium [Optimem ± 10 mM HEPES ± 1 mM Sodium Pyruvate + 1× MEM NEAA]. […] Then the cells were stimulated by addition of either ShhN-conditioned media or control media (DMEM±10%BCS) at a final concentration of 10%. Following incubation of the plate for at least 28 hours at 37°C, the cells were simultaneously lysed and supplemented with a luciferase substrate by addition of equal volume of Steady-Glo reagent (Promega, E2520) directly to the assay media. Plates were mixed by pipetting, centrifuged to eliminate foam, incubated for 10 minutes, and analyzed using Perkin Elmer Viktor X luminescence plate reader. The results were analyzed using a non-linear regression (Prism 6, GraphPad Software, La Jolla, CA). Data were normalized to the maximal response observed for ShhN-stimulated cells in the same experiment. A sigmoidal-dose response curve was used as a model for data analysis and IC50 value calculation.

MB-PDX and DAOY cells [2] = experiment: alamarBlue cell viability assay, adherent versus NS conditions; format: cell-based, human
Protocol: The results were analyzed using a non-linear regression (Prism 6, GraphPad Software, La Jolla, CA).

MB-PDX cells [3] = experiment: Neurosphere formation assay; format: cell-based, human; conditions: MB-PDX, 10 μM, at least 7 days, 1–2 cells per well
Protocol: (§2) The final concentration of test compounds in the wells was 10 μM. Cells were incubated at 37 °C for at least seven days. After incubation percent of wells positive with neural stem cell-derived sphere colonies were calculated for each test condition and compared.

DAOY cells [4] = experiment: Neurosphere formation assay; format: cell-based, human; conditions: DAOY, 10 μM, at least 7 days, 1–2 cells per well
Protocol: as §2

DAOY cells [5] = experiment: cells; conditions: Homo sapiens, 72 h, read-out: Cell viability assay IC50
[6] = tested on: Mast/stem cell growth factor receptor Kit (KIT_HUMAN); design: method as in earlier work; conditions: S2/S3 Table; ref [1] Davis MI et al., Nat Biotechnol. 2011; cited from earlier work
[7] = tested on: Platelet-derived growth factor receptor beta (PGFRB_HUMAN); design: method as in earlier work; conditions: S2/S3 Table; ref [1] Davis MI et al., Nat Biotechnol. 2011; cited from earlier work
MB-PDX and DAOY cells [8] = experiment: Cell viability with and without Vismodegib (0.5 uM), alamar blue; format: cell-based, human; conditions: with 0.5 μM Vismodegib, 72 hours
Protocol: S6 Figure: Cell viability in Medulloblastoma Cells (MB-PDX and DAOY) [n=3]. […] The cell viability was measured after 72 hours of treatment using alamar blue. (Mean ± SD)

[9] = tested on: firefly luciferase under control of cAMP response element (CRE); experiment: CRE-luciferase counter assay in HEK293s cells; format: cell-based; conditions: different concentrations
Protocol: (a) The drugs were tested at different concentrations in HEK293s cells stably transfected with firefly luciferase under control of cAMP response element (CRE) (pGL4.29[luc2P/CRE/Hygro], Promega). […] Raw, non-normalized luminescence values are presented, to facilitate the assessment of the extent of inhibition. Shown is a single representative experiment out of the multiple experiments performed on different days. (Mean ± SD)

[10] = tested on: Platelet-derived growth factor receptor alpha (PGFRA_HUMAN); design: method as in earlier work; conditions: S2/S3 Table; ref [1] Davis MI et al., Nat Biotechnol. 2011; cited from earlier work
mSMO = biological target: T2, mSMO (Mus musculus, UniProt P56726); experiment: BODIPY-Cyclopamine competition binding assay, flow cytometry, HEK293T cells transiently transfected with mSMO; conditions: BODIPY-Cyclopamine 5 nM
T2 construct: host or cells: HEK293T
Protocol: Prior to transfection, cell culture media was replaced with DMEM + 10%FBS for mSMO transfection and with DMEM + 10%BCS for ShhN transfection. The transfected dish was incubated for approximately 24 hours at 37°C. For the production of ShhN conditioned medium, the culture medium from ShhN-transfected HEK293T cells was collected, aliquoted in single use 1.5 mL Eppendorf tubes and either used fresh or stored at -20°C.
HEK293T cells transiently transfected with mSMO were lifted with trypsin (0.25%) and replated at 6×10^4 cells in 80 μL DMEM + 10%FBS per well in a 96 well tissue-culture treated plate (Falcon, 353219). The plate was incubated at 37°C for 24 hours. Serial dilutions of test compounds (10x final concentrations) were prepared in culture media. 10 μL of diluted compounds or control media were added to the plate after which the plate was incubated at 37°C for 10 min. […] Following at least 1.5 hours incubation at 37°C in 5% CO2, cells were lifted by vigorous pipetting, transferred to conical bottom 96-well plates, and centrifuged at 400 × g for 5 min at 4°C. Supernatant was discarded, cells were re-suspended in 300 μL of PBS + 0.5% BSA (freshly prepared), and the plate was analyzed with Guava benchtop flow cytometer. The results were interpreted with FlowJo software (version v10.1). Dose response curves were constructed in Prism 6 (GraphPad Software, La Jolla, CA).

SMO [11] = biological target: T1, SMO; experiment: Competitive functional inhibition assay against SAG, Gli-Luciferase, NIH 3T3 Gli-RE cells; format: cell-based; conditions: read-out: EC50 of SAG (printed as IC50 in Fig 5c); SAG alone
Protocol: After 24 hours, when the cells reached confluency, the culture medium was replaced with 80 μL per well of assay medium [Optimem ± 10 mM HEPES ± 1 mM Sodium Pyruvate + 1× MEM NEAA]. […] Following incubation of the plate for at least 28 hours at 37°C, the cells were simultaneously lysed and supplemented with a luciferase substrate by addition of equal volume of Steady-Glo reagent (Promega, E2520) directly to the assay media. Plates were mixed by pipetting, centrifuged to eliminate foam, incubated for 10 minutes, and analyzed using Perkin Elmer Viktor X luminescence plate reader. The results were analyzed using a non-linear regression (Prism 6, GraphPad Software, La Jolla, CA). Data were normalized to the maximal response observed for ShhN-stimulated cells in the same experiment. A sigmoidal-dose response curve was used as a model for data analysis and IC50 value calculation.

[12] = tested on: nuclear Gli-1 in MB-PDX cells; experiment: Western blot quantitation of nuclear Gli-1; format: cell-based, human; conditions: NS conditions, 24-hour treatment, 5 μM (Fig 6f, S4 Fig)
Protocol: (§1) Nuclear fractions were prepared from cell pellets according to the method of Schreiber et. al.[81] with minor modifications. […] After 24 hours, cells were lifted from the wells by pipetting, transferred to 1.5 mL Eppendorf tubes, centrifuged at 10,000 x g for 1 minutes at 4°C, and washed once in PBS. Following supernatant removal by vacuum, cells were lysed using a plasma membrane lysis buffer [10 mM HEPES; pH 7.5, 10 mM KCl, 0.1 mM EDTA, 1 mM dithiothreitol (DTT), 0.5% Nonidet P‐40 and 0.5 mM PMSF along with 1× protease inhibitor cocktail (Sigma)] and allowed to swell on ice for 15‐20 min with intermittent mixing. Next, tubes were vortexed to disrupt cell membranes and then centrifuged at 12,000 × g at 4°C for 10 min. […] The pelleted nuclei were washed with the plasma membrane lysis buffer and re-suspended in the nuclear extraction buffer [20 mM HEPES (pH 7.5), 400 mM NaCl, 1 mM EDTA, 1 mM DTT, 1 mM PMSF with 1× protease inhibitor cocktail] and incubated on ice for 30 min. The tubes were centrifuged at 12,000 ×g for 25 min at 4°C and the supernatant (now containing the soluble fraction of the cell nuclei) was collected. Total protein concentrations were determined using the Bio-Rad Protein Assay (Bio-Rad, Hercules, CA). Nuclear extracts containing the total of 40 μg protein were separated on a 10% Tris-SDS PAGE gel (Bio-Rad Mini-PROTEAN® TGX). Gels were transferred on nitrocellulose membranes using Bio-Rad TransBlot system, after which the membranes were blocked in the blocking buffer [5% nonfat dry milk in 1× Tris Buffer Saline + 0.1% Tween 20 (TBST)] for 2 hours at room temperature. Following blocking, the membranes were washed four times with TBST (5 minutes gentle rocking per wash) and incubated overnight with primary antibody Rabbit anti-Gli-1 (Cell signaling, #C68H3); 1:250 dilution in TBST-Milk at 4°C with gentle rocking. Membranes were washed three times with TBST for 5 min each.

[13] = tested on: nuclear Gli-1 in DAOY cells; experiment: Western blot quantitation of nuclear Gli-1; format: cell-based, human; conditions: NS conditions, 24-hour treatment, 5 μM (Fig 6f, S4 Fig)
Protocol: as §1

MB-PDX cells [14] = experiment: cells; conditions: Homo sapiens, 72 h, read-out: Cell viability assay IC50
[15] = Mus musculus, NIH3T3, NIH3T3 Gli-RE cells, ShhN-conditioned media, n = 3, read-out: Hh/SMO pathway inhibition IC50
[16] = NIH3T3 Gli-RE cells, ShhN-conditioned media, n = 3, read-out: Hh/SMO pathway inhibition IC50

T2 sequence (P56726 33-793): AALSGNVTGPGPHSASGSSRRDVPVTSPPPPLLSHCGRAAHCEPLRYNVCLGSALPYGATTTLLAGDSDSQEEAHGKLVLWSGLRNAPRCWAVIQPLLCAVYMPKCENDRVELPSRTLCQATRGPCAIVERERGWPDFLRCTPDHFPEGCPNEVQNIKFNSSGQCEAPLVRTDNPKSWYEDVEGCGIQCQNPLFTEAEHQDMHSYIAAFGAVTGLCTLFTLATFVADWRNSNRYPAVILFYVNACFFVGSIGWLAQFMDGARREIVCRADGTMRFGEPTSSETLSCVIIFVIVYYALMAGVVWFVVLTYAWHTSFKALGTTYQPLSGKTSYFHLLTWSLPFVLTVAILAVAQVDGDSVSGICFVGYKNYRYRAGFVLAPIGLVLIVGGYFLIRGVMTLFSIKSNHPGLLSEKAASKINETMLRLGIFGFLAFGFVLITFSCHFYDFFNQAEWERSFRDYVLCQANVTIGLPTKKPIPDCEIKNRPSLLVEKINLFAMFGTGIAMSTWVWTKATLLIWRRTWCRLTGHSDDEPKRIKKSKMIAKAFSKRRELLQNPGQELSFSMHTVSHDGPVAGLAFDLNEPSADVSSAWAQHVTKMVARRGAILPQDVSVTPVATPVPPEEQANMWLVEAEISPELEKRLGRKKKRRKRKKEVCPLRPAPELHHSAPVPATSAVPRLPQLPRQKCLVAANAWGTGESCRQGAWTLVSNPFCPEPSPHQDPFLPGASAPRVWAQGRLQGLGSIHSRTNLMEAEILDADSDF
T1 sequence (P56726 33-793): as above

Cc1csc(CN[C@@H]2Cc3ccc(NC(=O)c4cccc(C)c4-c4ccc(C(F)(F)F)cc4)cc3C2)n1 [23b_ NV, 3-methyl-N-[(2R)-2-[(4-methyl-1,3-thiazol-2-yl)methylamino]-2,3-dihydro-1H-inden-5-yl]-2-[4-(trifluoromethyl)phenyl]benzamide]
IC50 (SMO [1]): 0.017 µM

CNCc1ccc(C)c(NC(=O)c2ccc(Nc3nc(-c4ccccc4)c4ccccc4n3)cc2)c1 [BMS_833923]
IC50 (SMO [1]): 0.006 to 0.035 µM

CC1=C2C[C@H]3[C@@H](CC=C4C[C@@H](O)CC[C@@]43C)[C@@H]2CC[C@]12O[C@@H]1C[C@H](C)CN[C@H]1[C@H]2C [Cyclopamine]
IC50 (Hh/SMO pathway; Mus musculus, NIH3T3, read-out: Hh/SMO pathway inhibition IC50, NIH3T3 Gli-RE cells, ShhN-conditioned media, n = 3): 0.189 µM | Span of concentration response curve (Hh/SMO pathway): 105.7 | IC50 (Hh/SMO pathway; read-out: Hh/SMO pathway inhibition IC50, NIH3T3 Gli-RE cells, ShhN-conditioned media, n = 3): 0.189 µM

C#Cc1cccc(Nc2ncnc3cc(OCCOC)c(OCCOC)cc23)c1 [Erlotinib]
Effect on cell viability (in words) (MB-PDX and DAOY cells [2]): did not affect cell viability under any condition | Inhibition of NS formation, wells (MB-PDX cells [3]): ineffective | Inhibition of NS formation, wells (DAOY cells [4]): ineffective | IC50 (DAOY cells [5]): 11 µM

Cc1ccc(NC(=O)c2ccc(CN3CCN(C)CC3)cc2)cc1Nc1nccc(-c2cccnc2)n1 [Imatinib]
Kd/Ki Value [6]: 0.013 µM | Kd/Ki Value [7]: 0.014 µM | Inhibition of NS formation, wells (MB-PDX cells [3]): less potent | Inhibition of NS formation, wells (DAOY cells [4]): less potent | Change of efficacy in cell viability assay in the presence of Vismodegib (MB-PDX and DAOY cells [8]): improvement in efficacy | Effect on CRE-driven luciferase activity (independent of SMO) [9]: lack of dose-dependent effect | Kd/Ki Value [10]: 0.031 µM | Inhibition of ShhN-induced Hh signaling (in words) (Hh/SMO pathway): inhibited ShhN-induced Hh signaling in a dose-dependent manner

CCC(C)n1ncn(-c2ccc(N3CCN(c4ccc(OCC5COC(Cn6cncn6)(c6ccc(Cl)cc6Cl)O5)cc4)CC3)cc2)c1=O (centres unmarked) [Itraconazole]
IC50 (SMO [1]): 0.8 µM

C[C@@]12CN(C(=O)Nc3ccnn3-c3ccccc3)CCN1C(=O)N([C@H]1C[C@@H]1c1ccccc1)C2=O [MK_5710, (8aS)-8a-methyl-1,3-dioxo-2-[(1S,2R)-2-phenylcyclopropyl]-N-(1-phenyl-1H-pyrazol-5-yl)hexahydroimid azo[1,5-a]pyrazine-7(1H)-carboxamide]
IC50 (SMO [1]): 0.017 µM

COC(=O)Nc1nc2ccc(C(=O)c3ccccc3)cc2[nH]1 [Mebendazole]
Displacement of BODIPY-Cyclopamine from SMO (in words) (mSMO): no effect | IC50 (Hh/SMO pathway; [15]): 0.327 µM | Inhibition of ShhN-induced Hh signaling (in words) (Hh/SMO pathway): inhibited ShhN-induced Hh signaling in a dose-dependent manner | IC50 (Hh/SMO pathway; [16]): 0.328 µM | Span of concentration response curve (Hh/SMO pathway): 108.1

CS(=O)(=O)Nc1ccc([N+](=O)[O-])cc1Oc1ccccc1 [Nimesulide]
Displacement of BODIPY-Cyclopamine from SMO (in words) (mSMO): no effect | Inhibition of ShhN-induced Hh signaling (in words) (Hh/SMO pathway): inactive | Span of concentration response curve (Hh/SMO pathway): -3.874

CNC1CCC(N(Cc2cccc(-c3ccncc3)c2)C(=O)c2sc3ccccc3c2Cl)CC1 (centres unmarked) [SAG]
EC50 (SMO [11]): 0.079 µM | EC50 (SMO [1]; read-out: Gli-RE-luciferase assay EC50 (for SAG the value is EC50 not IC50), agonist): 0.003 µM

Cc1nn(-c2ccccc2)c(C)c1/C=N/N1CCN(Cc2ccccc2)CC1 [SANT-1]
IC50 (SMO [1]): 0.02 µM

CC1=C2C[C@H]3[C@@H](CC[C@@H]4C[C@H](NS(C)(=O)=O)CC[C@@]43C)[C@@H]2CC[C@@]2(C1)O[C@@H]1C[C@H](C)CN[C@H]1[C@H]2C [Saridegib]
IC50 (SMO [1]): 0.009 µM

Cc1c(C(=O)Nc2ccc(N3C[C@@H](C)O[C@@H](C)C3)nc2)cccc1-c1ccc(OC(F)(F)F)cc1 [Sonidegib (NVP-LDE225), Sonidegib]
IC50 (SMO [1]): 0.0025 µM

CN(C(=O)c1ccc(F)cc1C(F)(F)F)C1CCN(c2nnc(-c3ccnn3C)c3ccccc23)CC1 [Taladegib (LY2940680), Taladegib]
IC50 (SMO [1]): 0.0026 µM

O=C1CCC(N2C(=O)c3ccccc3C2=O)C(=O)N1 (centres unmarked) [Thalidomide]
Displacement of BODIPY-Cyclopamine from SMO (in words) (mSMO): no effect | Inhibition of ShhN-induced Hh signaling (in words) (Hh/SMO pathway): inactive | Span of concentration response curve (Hh/SMO pathway): -12.85

CS(=O)(=O)c1ccc(C(=O)Nc2ccc(Cl)c(-c3ccccn3)c2)c(Cl)c1 [Vismodegib]
Inhibition of NS formation, wells (MB-PDX cells [3]): ineffective | Inhibition of NS formation, wells (DAOY cells [4]): ineffective | Nuclear Gli-1, mean, % of untreated samples [12]: 67% | Nuclear Gli-1, mean, % of untreated samples [13]: 75% | Effect on CRE-driven luciferase activity (independent of SMO) [9]: lack of dose-dependent effect | IC50 (MB-PDX cells [14]): 52 µM | IC50 (Hh/SMO pathway; [15]): 0.00408 µM | IC50 (Hh/SMO pathway; [16]): 0.004 µM
